According to patent publication US4698300A, “Process and reagent for the determination of α-amylase” (Merck Patent Gesellschaft mit beschrankter Haftung, priority 1983, dated 1987):

Tests used:
[1] = pH dependency of the absorption; assay type: physicochemical; conditions: reagent solution adjusted to pH 7.1, pH increased and decreased stepwise, FIG. 2, versus 4-nitrophenol
Experimental: Determination of α-amylase, pH dependency of the absorption
Under the same conditions as in Example 1, there are measured the extinctions of two reagent solutions adjusted to a pH value of 7.1, one of which contains 2-chloro-4-nitrophenol, the other 4-nitrophenol.

α-amylase = assay: determination of α-amylase, time-reaction curve with α-glucosidase and β-glucosidase, extinction at 405 nm; assay type: biochemical; conditions: for extinction change per minute: substrate in α-amylase determination, FIG. 1, 405 nm, 30° C.
Experimental: For the determination of α-amylase, the reagent solution of substrate, α-glucosidase, β-glucosidase, buffer and activation agent is mixed with the sample solution and the extinction recorded at 405 nm e.g. at 30° C. Typically, 0.2-3.0 ml of reagent is mixed with 1.0-50 μl of sample for ordinary α-amylase concentrations.
Determination of α-amylase
A reagent composition is prepared which, per ml. of test volume, contains the following components: […]
2-chloro-4-nitrophenyl-β,D-
phosphate buffer (pH 6.8)
sodium chloride 0.05 Mol/l.
carrying out of the test: 1 ml. reagent + 10 μl. sample

[2] = optimum pH conditions of the α-amylase determination (6.8-7.1); cited from earlier work

SMILES: O=[N+]([O-])c1ccc(O)c(Cl)c1 [2-chloro-4-nitrophenol]
- influence of change of the pH value on the extinction [1]: less strongly influenced by change of the pH value

SMILES: O=[N+]([O-])c1ccc(O[C@H]2O[C@H](CO)[C@@H](O[C@H]3O[C@H](CO)[C@@H](O[C@H]4O[C@H](CO)[C@@H](O[C@H]5O[C@H](CO)[C@@H](O[C@H]6O[C@H](CO)[C@@H](O[C@H]7O[C@H](CO)[C@@H](O[C@H]8O[C@H](CO)[C@@H](O)[C@H](O)[C@H]8O)[C@H](O)[C@H]7O)[C@H](O)[C@H]6O)[C@H](O)[C@H]5O)[C@H](O)[C@H]4O)[C@H](O)[C@H]3O)[C@H](O)[C@H]2O)c(Cl)c1 [2-chloro-4-nitrophenyl-α,D-maltoheptaoside, reference compound]
- extinction change per minute (α-amylase): 0.036

SMILES: O=[N+]([O-])c1ccc(O[C@@H]2O[C@H](CO)[C@@H](O[C@H]3O[C@H](CO)[C@@H](O[C@H]4O[C@H](CO)[C@@H](O[C@H]5O[C@H](CO)[C@@H](O[C@H]6O[C@H](CO)[C@@H](O[C@H]7O[C@H](CO)[C@@H](O[C@H]8O[C@H](CO)[C@@H](O)[C@H](O)[C@H]8O)[C@H](O)[C@H]7O)[C@H](O)[C@H]6O)[C@H](O)[C@H]5O)[C@H](O)[C@H]4O)[C@H](O)[C@H]3O)[C@H](O)[C@H]2O)c(Cl)c1 [2-chloro-4-nitrophenyl-β,D-maltoheptaoside]
- increase of the change of absorption (Δ E/min.) (α-amylase; line I in comparison with line III (4-nitrophenyl-α,D-maltoheptaoside), FIG. 1, Example 1): ~ 0.05
- factor of increase of extinction change per minute (α-amylase; relative to 4-nitrophenyl-α,D-maltoheptaoside, FIG. 1): 3
- extinction change per minute (α-amylase): above 0.075

SMILES: O=[N+]([O-])c1ccc(O[C@H]2O[C@H](CO)[C@@H](O[C@H]3O[C@H](CO)[C@@H](O[C@H]4O[C@H](CO)[C@@H](O[C@H]5O[C@H](CO)[C@@H](O[C@H]6O[C@H](CO)[C@@H](O[C@H]7O[C@H](CO)[C@@H](O[C@H]8O[C@H](CO)[C@@H](O)[C@H](O)[C@H]8O)[C@H](O)[C@H]7O)[C@H](O)[C@H]6O)[C@H](O)[C@H]5O)[C@H](O)[C@H]4O)[C@H](O)[C@H]3O)[C@H](O)[C@H]2O)cc1 [4-nitrophenyl-α,D-maltoheptaoside, reference compound]
- extinction change per minute (α-amylase): 0.024

SMILES: O=[N+]([O-])c1ccc(O)cc1 [p-nitrophenol]
- liberated p-nitrophenol present as colored phenolate anion [2]: about 50%
